Test results: ChEMBL document CHEMBL1833802, “Substitution of the GalNAc-α-O-Thr¹¹ residue in drosocin with O-linked glyco-peptoid residue: effect on antibacterial activity and conformational change” (2011)
Calls of active or inactive are those of the source. The calls are words filed in the database; no cut-off is given here. Numbered stars: 1 amine (or outer) side, 2 acyl side, 3 side chain; on linkers, the order of the positions; unused ones are H or OH. Square brackets hold non-standard residues; d marks the D form. Peptide text beside a SMILES is read from it. X1 = CC(=O)N[C@H]1[C@@H](O[C@@H](C)CN(CC(=O)[*:2])[*:1])O[C@H](CO)[C@H](O)[C@@H]1O; X2 = CC(=O)N[C@H]1[C@@H](O[C@H](C)CN(CC(=O)[*:2])[*:1])O[C@H](CO)[C@H](O)[C@@H]1O; X3 = CC(=O)N[C@H]1[C@@H](OCCN(CC(=O)[*:2])[*:1])O[C@H](CO)[C@H](O)[C@@H]1O

How the values were obtained:
[1] = tested on: Escherichia coli; experiment: Antibacterial activity against clinical isolate Escherichia coli KCTC 1682 at 50 uM after overnight incubation by radial diffusion assay relative to drosocin D; assay type: functional
[2] = tested on: Escherichia coli; experiment: Antibacterial activity against clinical isolate Escherichia coli KCTC 1682 after overnight incubation by radial diffusion assay; assay type: functional, organism-based

Row | Structure (SMILES) | fold change (FC) [1] | Activity [2]
1 | CC[C@H](C)[C@H](NC(=O)[C@@H]1CCCN1C(=O)[C@H](CCCNC(=N)N)NC(=O)[C@@H]1CCCN1C(=O)[C@H](Cc1cnc[nH]1)NC(=O)[C@H](CO)NC(=O)CN(C[C@H](C)O[C@H]1O[C@H](CO)[C@H](O)[C@H](O)[C@H]1NC(C)=O)C(=O)[C@H](C)NC(=O)[C@H](CCCNC(=N)N)NC(=O)[C@@H]1CCCN1C(=O)[C@@H](NC(=O)[C@H](Cc1ccc(O)cc1)NC(=O)[C@@H]1CCCN1C(=O)[C@H](CCCNC(=N)N)NC(=O)[C@@H]1CCCN1C(=O)[C@H](CCCCN)NC(=O)CN)[C@@H](C)O)C(=O)N[C@@H](CCCNC(=N)N)C(=O)N[C@H](C(=O)O)C(C)C (H-GKPRPYTPRA[X1]SHPRPIRV-OH) | 6 | Dose-dependent effect
2 | CC[C@H](C)[C@H](NC(=O)[C@@H]1CCCN1C(=O)[C@H](CCCNC(=N)N)NC(=O)[C@@H]1CCCN1C(=O)[C@H](Cc1cnc[nH]1)NC(=O)[C@H](CO)NC(=O)CN(C[C@@H](C)O[C@H]1O[C@H](CO)[C@H](O)[C@H](O)[C@H]1NC(C)=O)C(=O)[C@H](C)NC(=O)[C@H](CCCNC(=N)N)NC(=O)[C@@H]1CCCN1C(=O)[C@@H](NC(=O)[C@H](Cc1ccc(O)cc1)NC(=O)[C@@H]1CCCN1C(=O)[C@H](CCCNC(=N)N)NC(=O)[C@@H]1CCCN1C(=O)[C@H](CCCCN)NC(=O)CN)[C@@H](C)O)C(=O)N[C@@H](CCCNC(=N)N)C(=O)N[C@H](C(=O)O)C(C)C (H-GKPRPYTPRA[X2]SHPRPIRV-OH) | – | Active
3 | CC[C@H](C)[C@H](NC(=O)[C@@H]1CCCN1C(=O)[C@H](CCCNC(=N)N)NC(=O)[C@@H]1CCCN1C(=O)[C@H](Cc1cnc[nH]1)NC(=O)[C@H](CO)NC(=O)CN(CCO[C@H]1O[C@H](CO)[C@H](O)[C@H](O)[C@H]1NC(C)=O)C(=O)[C@H](C)NC(=O)[C@H](CCCNC(=N)N)NC(=O)[C@@H]1CCCN1C(=O)[C@@H](NC(=O)[C@H](Cc1ccc(O)cc1)NC(=O)[C@@H]1CCCN1C(=O)[C@H](CCCNC(=N)N)NC(=O)[C@@H]1CCCN1C(=O)[C@H](CCCCN)NC(=O)CN)[C@@H](C)O)C(=O)N[C@@H](CCCNC(=N)N)C(=O)N[C@H](C(=O)O)C(C)C (H-GKPRPYTPRA[X3]SHPRPIRV-OH) | – | Active
